{
  "source": "patent US8344115B2",
  "about": "“Immunoassay for specific determination of S-adenosylmethionine and analogs thereof in biological samples” (priority 2008, dated 2013)",
  "tested_on": "Rabbit antiserum (raised against AdaM-BSA)",
  "assay": "Assay 1: end point competitive ELISA with rabbit antibody and antibody specificity (goat anti-rabbit strips, AdaM-HRP conjugate)",
  "format": "binding",
  "settings": "rabbit antiserum 1:12,500, duplicate",
  "protocol": "New Zealand White rabbits were used for polyclonal antibody production. Immunization (1 ml total volume) was carried out with subcutaneous injections at multiple sites. Initial injection utilizes 1:1 mixture of complete Freund Adjuvant and AdaM-BSA conjugate solution in PBS upon emulsification. Subsequent injections use incomplete Freund adjuvant. The immunization was on 21 days cycle schedule, the animals were bleed from the ear artery (rabbit sedated) between 7 to 14 days after injection, normally on the 10th day. The blood was then processed to serum via centrifugation to remove red blood cells and clots. Immune response was detected after three booster injections. See FIG. 1 for a typical positive antibody response (indicated by antibody titer determination) wherein NA005 and 006 are animal designation numbers, 0 represents pre-bleed, 1 represents the first bleed after 4 immunizations.\n4-1. Assay 1 Assay (End Point) with Rabbit Antibody and Antibody Specificity\n• 1. Goat anti-rabbit coated microtiter well strips. • 2. —Rabbit antiserum diluted in incubation buffer (IB: 10 mM phosphate, 150 mM NaCl, 0.2% BSA, 0.1% Tween 20, 0.1% Proclin, pH 7.4) • 3. An IB+Tris (100 mM) buffer, pH 8.5 • 4. Samples: • (a) SAMe toluenesulfonate (tosylate) disulfate at concentration from […] to 1.4×10^−5 M in IB containing BSA 0.5%, and use 0.5% BSA-IB as zero sample. • (b) SAH at concentration from zero and 1.4×10^−8 to 1.4×10^−4 M. • (c) Adenosine at concentration from zero and 5.6×10^−9 M. to 5.6×10^−5 M • (d) Guanosine at concentration from zero and 3.0×10^−9 M to 3.0×10^−5 M • 5. AdaM-HRP conjugate (diluted to HRP concentration @30 μg/mL) in IB. • 6. —HRP substrate: one reagent substrate solution NeA-blue Tetramethylbenzidine Substrate, Clinical Science Products, Inc., Mansfield, Mass. • 7. 1N phosphoric acid Procedure: • 1. —The rabbit antiserum was diluted 1:12,500 in IB and pre-incubated (60 μl/well) in goat-antirabbit coated strips for at least one hour. • 2. Excess antibody was then decanted, washed, and blot dry. • 3. To each well was then added 10 μl of the pH 8.5 IB+Tris buffer followed by 25 μl of samples. The mixture was incubated on a orbital shaker for 25 min. All samples were tested in duplicate except the zero sample, in 6 wells. • 4. Twenty five microliter (25 μl) of AdaM-HRP conjugate solution was then added and incubated for additional 25 min with shaking. • 5. The assay mixture was then decanted, washed, and blot dry. • 6. To each well was added 60 μl/well of HRP substrate and incubate for 15 min. • 7. Stop the substrate development with 120 μl/well of 1N phosphoric acid. • 8. Read OD450 on a Perkin Elmer Lambda (microtiter plate) Reader. Results: (See Table 1 below)",
  "data": [
    {"smiles": "Nc1ncnc2c1ncn2[C@@H]1O[C@H](CO)[C@@H](O)[C@H]1O", "note": "[Adenosine]", "values": [
      {"measurement": "OD450", "setting": "sample concentration 5.6E−5 (M)", "value": 0.256},
      {"measurement": "OD450", "setting": "sample concentration 5.6E−6 (M)", "value": 0.300},
      {"measurement": "OD450", "setting": "sample concentration 5.6E−7 (M)", "value": 0.305},
      {"measurement": "OD450", "setting": "sample concentration 5.6E−8 (M)", "value": 0.339},
      {"measurement": "OD450", "setting": "sample concentration 5.6E−9 (M)", "value": 0.342}
    ]},
    {"smiles": "Nc1nc2c(ncn2[C@@H]2O[C@H](CO)[C@@H](O)[C@H]2O)c(=O)[nH]1", "note": "[Guanosine]", "values": [
      {"measurement": "OD450", "setting": "sample concentration 3.0E−5 (M)", "value": 0.371},
      {"measurement": "OD450", "setting": "sample concentration 3.0E−6 (M)", "value": 0.383},
      {"measurement": "OD450", "setting": "sample concentration 3.0E−7 (M)", "value": 0.374},
      {"measurement": "OD450", "setting": "sample concentration 3.0E−8 (M)", "value": 0.324},
      {"measurement": "OD450", "setting": "sample concentration 3.0E−9 (M)", "value": 0.350}
    ]},
    {"smiles": "Nc1ncnc2c1ncn2[C@@H]1O[C@H](CSCC[C@H](N)C(=O)O)[C@@H](O)[C@H]1O", "note": "[SAH, S-Adenosylhomocysteine]", "values": [
      {"measurement": "OD450", "setting": "sample concentration 1.4E−4 (M)", "value": 0.209},
      {"measurement": "OD450", "setting": "sample concentration 1.4E−5 (M)", "value": 0.244},
      {"measurement": "OD450", "setting": "sample concentration 1.4E−6 (M)", "value": 0.293},
      {"measurement": "OD450", "setting": "sample concentration 1.4E−7 (M)", "value": 0.323},
      {"measurement": "OD450", "setting": "sample concentration 1.4E−8 (M)", "value": 0.337}
    ]}
  ]
}
